Results reported in PubChem BioAssay (NCI).
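Values below derive from 48-hour exposures of cells grown in 96-well plates, with endpoints linearly interpolated between the two concentrations bracketing the appropriate inhibition level. TGI: concentration producing complete growth inhibition.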

These compounds were tested on IGROV1 ovarian (assay: NCI-60 cell line screen, 48 h).

Compound	TGI
C1=Cc2cc3c(c4nccc(c24)N1)OCO3	8.24 µM

What follows are compounds tested on MCF7 breast (assay: NCI-60 cell line screen, 48 h).

Compound	TGI
CC(C)=C[C@H]1CCC2(OCCO2)[C@]1(C)CO	> 100 µM
O=C(N/N=C\C=C\c1ccc([N+](=O)[O-])o1)C(=O)N/N=C\C=C\c1ccc([N+](=O)[O-])o1	> 100 µM
CSc1nnc(SC)nn1	32.7 µM
N#CCCC(CCC#N)(CCC#N)NO	> 100 µM
CCOC(=O)c1cn2c(n1)sc1cc(Cl)ccc12	> 100 µM
CC(C)=C[C@H]1CCC2(OCCO2)[C@]1(C)COCc1ccccc1	> 100 µM
COC(=O)c1cc2c(cc1Cl)Sc1nnc(Nc3ccc(C)cc3)n1S2(=O)=O	11.4 µM
c1ccc(CNc2nncc3[nH]cnc23)cc1	> 100 µM
CCN1CCN(c2nc3ccccc3c3c2CCOc2ccccc2-3)CC1	> 56.5 µM
N#Cc1c(-c2ccccc2)[nH]c2ccc(Cl)cc2c1=O	> 100 µM
O=C(NCP(=O)(c1ccccc1)c1ccccc1)OCc1ccccc1	> 100 µM
O=c1cc(N2CCCC2)[nH]c(=O)n1-c1cccc(Cl)c1	> 100 µM
O=C1NC(=S)NC(=O)C1C(c1ccc(O)cc1)C1C(=O)NC(=S)NC1=O	> 100 µM
CC(=O)[C@@H](C)C(=O)N1C(=O)OC[C@@]12[C@@H]1CC[C@@H](C1)C2(C)C	> 100 µM
C/C(=N/NC(N)=S)c1ccc[nH]1	> 100 µM
CCc1cc(Cc2cc(CC)c(NC(=O)C(=O)CC(=O)c3sc(-c4cccnc4)nc3C)c(CC)c2)cc(CC)c1NC(=O)C(=O)CC(=O)c1sc(-c2cccnc2)nc1C	> 100 µM
NNC(=S)N/N=C(/C(=O)Nc1ccc(Cl)c(Cl)c1)C(C1OC(=O)c2ccccc21)[N+](=O)[O-] (configuration not stated)	> 100 µM
CO/C=C(/C(=O)OC)c1ccccc1COc1cccc(C(F)(F)F)c1	> 100 µM
C1=Cc2cc3c(c4nccc(c24)N1)OCO3	16.1 µM

Each compound was assayed on NCI-H23 lung (assay: NCI-60 cell line screen, 48 h).

Compound	TGI
CC(C)=C[C@H]1CCC2(OCCO2)[C@]1(C)CO	> 100 µM
O=C(N/N=C\C=C\c1ccc([N+](=O)[O-])o1)C(=O)N/N=C\C=C\c1ccc([N+](=O)[O-])o1	> 100 µM
CSc1nnc(SC)nn1	49.4 µM
N#CCCC(CCC#N)(CCC#N)NO	> 100 µM
CCOC(=O)c1cn2c(n1)sc1cc(Cl)ccc12	> 100 µM
CC(C)=C[C@H]1CCC2(OCCO2)[C@]1(C)COCc1ccccc1	> 100 µM
COC(=O)c1cc2c(cc1Cl)Sc1nnc(Nc3ccc(C)cc3)n1S2(=O)=O	15.7 µM
c1ccc(CNc2nncc3[nH]cnc23)cc1	> 100 µM
CCN1CCN(c2nc3ccccc3c3c2CCOc2ccccc2-3)CC1	> 100 µM
N#Cc1c(-c2ccccc2)[nH]c2ccc(Cl)cc2c1=O	> 100 µM
O=C(NCP(=O)(c1ccccc1)c1ccccc1)OCc1ccccc1	> 100 µM
O=c1cc(N2CCCC2)[nH]c(=O)n1-c1cccc(Cl)c1	> 100 µM
O=C1NC(=S)NC(=O)C1C(c1ccc(O)cc1)C1C(=O)NC(=S)NC1=O	> 100 µM
CC(=O)[C@@H](C)C(=O)N1C(=O)OC[C@@]12[C@@H]1CC[C@@H](C1)C2(C)C	> 100 µM
C/C(=N/NC(N)=S)c1ccc[nH]1	> 100 µM
CCc1cc(Cc2cc(CC)c(NC(=O)C(=O)CC(=O)c3sc(-c4cccnc4)nc3C)c(CC)c2)cc(CC)c1NC(=O)C(=O)CC(=O)c1sc(-c2cccnc2)nc1C	> 100 µM
NNC(=S)N/N=C(/C(=O)Nc1ccc(Cl)c(Cl)c1)C(C1OC(=O)c2ccccc21)[N+](=O)[O-] (configuration not stated)	> 100 µM
CO/C=C(/C(=O)OC)c1ccccc1COc1cccc(C(F)(F)F)c1	> 100 µM
C1=Cc2cc3c(c4nccc(c24)N1)OCO3	26.3 µM

The compounds below were run on TK-10 renal (assay: NCI-60 cell line screen, 48 h).

Compound	TGI
CC(C)=C[C@H]1CCC2(OCCO2)[C@]1(C)CO	> 100 µM
O=C(N/N=C\C=C\c1ccc([N+](=O)[O-])o1)C(=O)N/N=C\C=C\c1ccc([N+](=O)[O-])o1	> 100 µM
CSc1nnc(SC)nn1	25.8 µM
N#CCCC(CCC#N)(CCC#N)NO	> 100 µM
CCOC(=O)c1cn2c(n1)sc1cc(Cl)ccc12	> 100 µM
CC(C)=C[C@H]1CCC2(OCCO2)[C@]1(C)COCc1ccccc1	> 100 µM
COC(=O)c1cc2c(cc1Cl)Sc1nnc(Nc3ccc(C)cc3)n1S2(=O)=O	27.7 µM
c1ccc(CNc2nncc3[nH]cnc23)cc1	> 100 µM
CCN1CCN(c2nc3ccccc3c3c2CCOc2ccccc2-3)CC1	> 56.9 µM
N#Cc1c(-c2ccccc2)[nH]c2ccc(Cl)cc2c1=O	90.6 µM
O=C(NCP(=O)(c1ccccc1)c1ccccc1)OCc1ccccc1	> 100 µM
O=c1cc(N2CCCC2)[nH]c(=O)n1-c1cccc(Cl)c1	> 100 µM
O=C1NC(=S)NC(=O)C1C(c1ccc(O)cc1)C1C(=O)NC(=S)NC1=O	> 100 µM
CC(=O)[C@@H](C)C(=O)N1C(=O)OC[C@@]12[C@@H]1CC[C@@H](C1)C2(C)C	> 100 µM
C/C(=N/NC(N)=S)c1ccc[nH]1	> 100 µM
NNC(=S)N/N=C(/C(=O)Nc1ccc(Cl)c(Cl)c1)C(C1OC(=O)c2ccccc21)[N+](=O)[O-] (configuration not stated)	> 100 µM
C1=Cc2cc3c(c4nccc(c24)N1)OCO3	> 80.1 µM

These compounds were tested on SNB-19 CNS (assay: NCI-60 cell line screen, 48 h).

Compound	TGI
CC(C)=C[C@H]1CCC2(OCCO2)[C@]1(C)CO	> 100 µM
O=C(N/N=C\C=C\c1ccc([N+](=O)[O-])o1)C(=O)N/N=C\C=C\c1ccc([N+](=O)[O-])o1	> 100 µM
CSc1nnc(SC)nn1	43.3 µM
N#CCCC(CCC#N)(CCC#N)NO	> 100 µM
CCOC(=O)c1cn2c(n1)sc1cc(Cl)ccc12	83.2 µM
CC(C)=C[C@H]1CCC2(OCCO2)[C@]1(C)COCc1ccccc1	> 100 µM
COC(=O)c1cc2c(cc1Cl)Sc1nnc(Nc3ccc(C)cc3)n1S2(=O)=O	20.2 µM
CCN1CCN(c2nc3ccccc3c3c2CCOc2ccccc2-3)CC1	> 75.1 µM
N#Cc1c(-c2ccccc2)[nH]c2ccc(Cl)cc2c1=O	59.9 µM
O=C(NCP(=O)(c1ccccc1)c1ccccc1)OCc1ccccc1	> 100 µM
O=c1cc(N2CCCC2)[nH]c(=O)n1-c1cccc(Cl)c1	> 100 µM
O=C1NC(=S)NC(=O)C1C(c1ccc(O)cc1)C1C(=O)NC(=S)NC1=O	> 100 µM
CC(=O)[C@@H](C)C(=O)N1C(=O)OC[C@@]12[C@@H]1CC[C@@H](C1)C2(C)C	> 100 µM
C/C(=N/NC(N)=S)c1ccc[nH]1	> 100 µM
CCc1cc(Cc2cc(CC)c(NC(=O)C(=O)CC(=O)c3sc(-c4cccnc4)nc3C)c(CC)c2)cc(CC)c1NC(=O)C(=O)CC(=O)c1sc(-c2cccnc2)nc1C	> 100 µM
CO/C=C(/C(=O)OC)c1ccccc1COc1cccc(C(F)(F)F)c1	> 100 µM
C1=Cc2cc3c(c4nccc(c24)N1)OCO3	> 34.7 µM

The compounds below were run on NCI-H460 lung (assay: NCI-60 cell line screen, 48 h).

Compound	TGI
CC(C)=C[C@H]1CCC2(OCCO2)[C@]1(C)CO	> 100 µM
O=C(N/N=C\C=C\c1ccc([N+](=O)[O-])o1)C(=O)N/N=C\C=C\c1ccc([N+](=O)[O-])o1	> 100 µM
CSc1nnc(SC)nn1	32.9 µM
N#CCCC(CCC#N)(CCC#N)NO	> 100 µM
CCOC(=O)c1cn2c(n1)sc1cc(Cl)ccc12	> 100 µM
CC(C)=C[C@H]1CCC2(OCCO2)[C@]1(C)COCc1ccccc1	59 µM
COC(=O)c1cc2c(cc1Cl)Sc1nnc(Nc3ccc(C)cc3)n1S2(=O)=O	25.7 µM
CCN1CCN(c2nc3ccccc3c3c2CCOc2ccccc2-3)CC1	> 73.9 µM
N#Cc1c(-c2ccccc2)[nH]c2ccc(Cl)cc2c1=O	> 100 µM
O=C(NCP(=O)(c1ccccc1)c1ccccc1)OCc1ccccc1	> 100 µM
O=c1cc(N2CCCC2)[nH]c(=O)n1-c1cccc(Cl)c1	> 100 µM
O=C1NC(=S)NC(=O)C1C(c1ccc(O)cc1)C1C(=O)NC(=S)NC1=O	> 100 µM
CC(=O)[C@@H](C)C(=O)N1C(=O)OC[C@@]12[C@@H]1CC[C@@H](C1)C2(C)C	> 100 µM
C/C(=N/NC(N)=S)c1ccc[nH]1	> 100 µM
CCc1cc(Cc2cc(CC)c(NC(=O)C(=O)CC(=O)c3sc(-c4cccnc4)nc3C)c(CC)c2)cc(CC)c1NC(=O)C(=O)CC(=O)c1sc(-c2cccnc2)nc1C	> 100 µM
NNC(=S)N/N=C(/C(=O)Nc1ccc(Cl)c(Cl)c1)C(C1OC(=O)c2ccccc21)[N+](=O)[O-] (configuration not stated)	> 100 µM
CO/C=C(/C(=O)OC)c1ccccc1COc1cccc(C(F)(F)F)c1	> 100 µM
C1=Cc2cc3c(c4nccc(c24)N1)OCO3	> 30.6 µM

Each compound was assayed on OVCAR-3 ovarian (assay: NCI-60 cell line screen, 48 h).

Compound	TGI
O=C(N/N=C\C=C\c1ccc([N+](=O)[O-])o1)C(=O)N/N=C\C=C\c1ccc([N+](=O)[O-])o1	55 µM
